Experiments:
Assay type in all cases: biochemical
JAK3 = target: T1, JAK3 (Homo sapiens, UniProt P52333); test: JAK3 inhibition assay (33P incorporation into poly(Glu)4Tyr); details: enzyme inhibition, Table 5
T1 sequence (P52333 1-1124): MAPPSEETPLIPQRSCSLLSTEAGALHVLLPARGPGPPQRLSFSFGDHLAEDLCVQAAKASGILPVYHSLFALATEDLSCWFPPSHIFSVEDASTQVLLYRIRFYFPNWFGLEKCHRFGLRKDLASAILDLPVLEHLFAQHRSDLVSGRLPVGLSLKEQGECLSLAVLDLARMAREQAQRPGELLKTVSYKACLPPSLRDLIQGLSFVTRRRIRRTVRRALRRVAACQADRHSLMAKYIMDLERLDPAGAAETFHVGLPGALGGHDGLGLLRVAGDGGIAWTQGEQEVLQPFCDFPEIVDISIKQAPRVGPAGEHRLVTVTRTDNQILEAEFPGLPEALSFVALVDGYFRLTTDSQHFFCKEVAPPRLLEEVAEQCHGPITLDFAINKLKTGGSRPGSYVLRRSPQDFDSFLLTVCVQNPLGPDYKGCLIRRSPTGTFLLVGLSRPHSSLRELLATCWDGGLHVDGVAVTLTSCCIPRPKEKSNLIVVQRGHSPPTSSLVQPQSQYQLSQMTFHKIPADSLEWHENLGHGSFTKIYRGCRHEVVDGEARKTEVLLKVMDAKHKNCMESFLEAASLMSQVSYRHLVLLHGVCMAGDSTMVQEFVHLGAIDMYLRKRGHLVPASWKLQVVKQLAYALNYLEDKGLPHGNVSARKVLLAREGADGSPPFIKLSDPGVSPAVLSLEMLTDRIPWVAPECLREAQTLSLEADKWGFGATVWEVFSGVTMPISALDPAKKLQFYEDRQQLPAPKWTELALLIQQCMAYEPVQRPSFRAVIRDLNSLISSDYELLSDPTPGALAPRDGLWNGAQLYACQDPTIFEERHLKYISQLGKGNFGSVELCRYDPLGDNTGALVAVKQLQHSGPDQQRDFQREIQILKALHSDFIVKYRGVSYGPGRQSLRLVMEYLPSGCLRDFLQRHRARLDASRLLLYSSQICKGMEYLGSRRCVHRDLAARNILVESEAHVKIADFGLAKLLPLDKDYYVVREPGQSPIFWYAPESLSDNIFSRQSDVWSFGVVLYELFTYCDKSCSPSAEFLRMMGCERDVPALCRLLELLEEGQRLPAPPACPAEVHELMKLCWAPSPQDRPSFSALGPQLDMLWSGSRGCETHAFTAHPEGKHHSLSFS
Protocol: (§1) Compounds were screened for their ability to inhibit JAK using the assay shown below. Reactions were carried out in a kinase buffer containing 100 mM HEPES (pH 7.4), 1 mM DTT, 10 mM MgCl2, 25 mM NaCl, and 0.01% BSA.
(§2) Substrate concentrations in the assay were 5 μM ATP (200 μCi/μmole ATP) and 1 μM poly(Glu)4Tyr. Reactions were carried out at 25° C. and 1 nM JAK3.
(§3) To each well of a 96 well polycarbonate plate was added 1.5 μl of a candidate JAK3 inhibitor along with 50/1 of kinase buffer containing 2 μM poly(Glu)4Tyr and 10 μM ATP. This was then mixed and 50 μl of kinase buffer containing 2 nM JAK3 enzyme was added to start the reaction. After 20 minutes at room temperature (25 C), the reaction was stopped with 50 μl of 20% trichloroacetic acid (TCA) that also contained 0.4 mM ATP. The entire contents of each well were then transferred to a 96 well glass fiber filter plate using a TomTek Cell Harvester. After washing, 60 μl of scintillation fluid was added and ^33P incorporation detected on a Perkin Elmer TopCount.

ROCK I = ROCK I (Homo sapiens, UniProt Q13464); test: ROCK-I inhibition assay (radioactive enzyme assay, MBP substrate); details: enzyme inhibition, Ki(app), Table 5
Sequence of ROCK I (Q13464 whole entry): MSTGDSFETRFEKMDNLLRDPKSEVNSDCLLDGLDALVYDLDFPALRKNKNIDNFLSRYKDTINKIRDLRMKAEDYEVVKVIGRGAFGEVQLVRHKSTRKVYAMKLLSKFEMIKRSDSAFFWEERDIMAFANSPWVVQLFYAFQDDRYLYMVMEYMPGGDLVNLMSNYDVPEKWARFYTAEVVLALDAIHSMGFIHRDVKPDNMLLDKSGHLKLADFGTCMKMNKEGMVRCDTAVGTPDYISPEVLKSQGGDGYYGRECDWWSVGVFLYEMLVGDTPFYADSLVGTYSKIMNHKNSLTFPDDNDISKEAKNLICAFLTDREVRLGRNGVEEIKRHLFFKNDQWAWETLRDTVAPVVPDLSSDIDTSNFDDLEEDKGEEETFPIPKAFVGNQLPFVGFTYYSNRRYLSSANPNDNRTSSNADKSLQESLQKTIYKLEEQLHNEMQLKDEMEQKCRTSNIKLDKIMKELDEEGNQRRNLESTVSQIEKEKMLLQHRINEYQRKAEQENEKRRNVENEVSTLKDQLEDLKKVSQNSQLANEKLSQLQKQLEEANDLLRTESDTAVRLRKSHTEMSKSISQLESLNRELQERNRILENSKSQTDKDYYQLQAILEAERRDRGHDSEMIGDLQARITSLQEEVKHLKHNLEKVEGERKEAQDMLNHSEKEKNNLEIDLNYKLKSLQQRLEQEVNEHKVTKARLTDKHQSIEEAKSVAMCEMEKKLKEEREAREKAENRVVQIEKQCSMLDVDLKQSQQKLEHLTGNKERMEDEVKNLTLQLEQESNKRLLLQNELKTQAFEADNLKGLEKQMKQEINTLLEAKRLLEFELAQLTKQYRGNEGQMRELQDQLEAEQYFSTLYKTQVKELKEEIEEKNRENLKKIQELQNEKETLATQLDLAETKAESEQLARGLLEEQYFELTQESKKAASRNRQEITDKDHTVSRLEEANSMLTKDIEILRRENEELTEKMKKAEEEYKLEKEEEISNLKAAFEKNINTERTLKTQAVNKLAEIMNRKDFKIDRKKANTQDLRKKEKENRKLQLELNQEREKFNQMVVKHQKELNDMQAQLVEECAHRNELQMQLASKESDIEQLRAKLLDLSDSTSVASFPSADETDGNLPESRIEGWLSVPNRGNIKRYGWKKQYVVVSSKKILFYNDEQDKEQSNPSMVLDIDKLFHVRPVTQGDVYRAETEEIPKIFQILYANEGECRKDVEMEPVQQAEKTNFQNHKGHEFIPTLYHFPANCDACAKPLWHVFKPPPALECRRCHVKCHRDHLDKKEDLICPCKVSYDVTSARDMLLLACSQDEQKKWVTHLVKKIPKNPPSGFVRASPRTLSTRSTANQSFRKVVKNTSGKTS
Protocol: Compounds were screened for their ability to inhibit ROCK using a standard radioactive enzyme assay. Assays were carried out in a solution containing 100 mM HEPES (pH 7.5), 10 mM MgCl2, 25 mM NaCl, 2 mM DTT, and 1.5% DMSO. Final substrate concentrations in the assay were 13 μM [γ-^33P] ATP (25 mCi ^33P ATP/mmol ATP, Perkin Elmer, Cambridge, Mass./Sigma Chemicals, St Louis, Mo.) and 27 μM Myelin Basic Protein (MBP). Final enzyme concentration in the assay was 5 nM ROCK. Assays were carried out at room temperature. 1.5 μl of DMSO stock containing serial dilutions of the compound of the present invention (concentrations ranging from 10 μM to 2.6 nM) was placed in a 96 well plate. 50 μl of Solution 1 (100 mM HEPES (pH 7.5), 10 mM MgCl2, […]) was added to the plate. The reaction was initiated by addition of 50 μl of Solution 2 (100 mM HEPES (pH 7.5), 10 mM MgCl2, 4 mM DTT, […] and 10 nM ROCK). After 2 hours the reaction was quenched with 50 μL of 30% trichloroacetic acid (TCA, Fisher) containing 9 mM ATP. Transfer of 140 μL of the quenched reaction to a glass fiber filter plate (Corning, Cat. No. 3511) was followed by washing 3 times with 5% TCA. 50 μl of Optima Gold scintillation fluid (Perkin Elmer) was added and the plates were counted on a Top Count (Perkin Elmer). After removing mean background values for all of the data points the data was fit using Prism software to obtain a Ki(app).

JAK2 = JAK2 (Homo sapiens, UniProt O60674); test: JAK2 inhibition assay (as Example 3 with JAK-2 enzyme); details: enzyme inhibition, Table 5
Sequence of JAK2 (O60674 whole entry): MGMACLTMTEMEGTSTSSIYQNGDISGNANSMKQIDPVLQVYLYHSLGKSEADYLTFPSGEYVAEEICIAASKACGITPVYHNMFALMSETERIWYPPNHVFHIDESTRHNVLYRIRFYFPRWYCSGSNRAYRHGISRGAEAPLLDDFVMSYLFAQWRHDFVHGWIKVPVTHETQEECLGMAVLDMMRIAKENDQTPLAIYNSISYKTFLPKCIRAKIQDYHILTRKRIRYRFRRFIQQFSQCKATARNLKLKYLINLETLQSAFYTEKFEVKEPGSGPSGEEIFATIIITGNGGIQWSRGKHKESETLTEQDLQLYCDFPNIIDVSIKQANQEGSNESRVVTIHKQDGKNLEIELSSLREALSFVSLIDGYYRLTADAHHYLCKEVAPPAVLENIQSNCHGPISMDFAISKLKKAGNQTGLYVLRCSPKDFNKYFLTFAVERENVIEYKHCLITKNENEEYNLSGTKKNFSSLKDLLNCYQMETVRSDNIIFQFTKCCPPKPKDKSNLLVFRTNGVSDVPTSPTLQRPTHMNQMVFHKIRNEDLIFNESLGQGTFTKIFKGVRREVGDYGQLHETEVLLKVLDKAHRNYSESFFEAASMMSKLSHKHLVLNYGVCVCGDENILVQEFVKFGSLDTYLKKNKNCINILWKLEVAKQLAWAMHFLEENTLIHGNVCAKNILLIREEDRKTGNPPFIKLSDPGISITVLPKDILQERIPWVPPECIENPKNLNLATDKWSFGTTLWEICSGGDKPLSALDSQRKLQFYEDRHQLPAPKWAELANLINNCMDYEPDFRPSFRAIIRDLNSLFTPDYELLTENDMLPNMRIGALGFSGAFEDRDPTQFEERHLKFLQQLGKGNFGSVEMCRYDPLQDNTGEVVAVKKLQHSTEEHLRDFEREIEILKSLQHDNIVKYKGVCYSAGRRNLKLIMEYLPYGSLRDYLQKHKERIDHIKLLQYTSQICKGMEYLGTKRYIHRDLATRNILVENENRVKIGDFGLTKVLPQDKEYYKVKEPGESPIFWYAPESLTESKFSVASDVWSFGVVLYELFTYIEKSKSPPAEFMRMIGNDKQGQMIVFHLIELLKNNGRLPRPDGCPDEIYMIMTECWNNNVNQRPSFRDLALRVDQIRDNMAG
Protocol: as §1, §2, §3
The assays were as described above in Example 3 except that JAK-2 enzyme was used, the final poly(Glu)4Tyr concentration was 15 μM, and final ATP concentration was 12 μM.

Ki (JAK3) | Ki (ROCK I) | Ki (JAK2) | Compound
> 5000 nM | 500 to 5000 nM | > 5000 nM | CN1CCCC1CCNc1cccc(-c2ccnc3[nH]ccc23)n1 (stereo not drawn) [compound 37, N-(2-(1-Methylpyrrolidin-2-yl)ethyl)-6-(1H-pyrrolo[2,3-b]pyridin-4-yl)pyridin-2-amine]
500 to 5000 nM | 500 to 5000 nM | 500 to 5000 nM | c1cc(-c2ccnc3[nH]ccc23)nc(N2CCc3ccccc3C2)c1 [compound 38, 2-(6-(1H-Pyrrolo[2,3-b]pyridin-4-yl)pyridin-2-yl)-1,2,3,4-tetrahydroisoquinoline]
500 to 5000 nM | 500 to 5000 nM | 500 to 5000 nM | Clc1cc(-c2ccnc3[nH]ccc23)ccn1 [compound 39, 4-(2-Chloro-pyridin-4-yl)-1H-pyrrolo[2,3-b]pyridine]
500 to 5000 nM | 500 to 5000 nM | 500 to 5000 nM | COc1cc(-c2ccnc3[nH]ccc23)cc(OC)c1OC [compound 40, 4-(3,4,5-Trimethoxy-phenyl)-1H-pyrrolo[2,3-b]pyridine]
500 to 5000 nM | < 500 nM | < 500 nM | Clc1ccc(-c2ccnc3[nH]ccc23)cc1Cl [compound 41, 4-(3,4-Dichloro-phenyl)-1H-pyrrolo[2,3-b]pyridine]
< 500 nM | < 500 nM | 500 to 5000 nM | c1ccc(COc2cccc(-c3ccnc4[nH]ccc34)c2)cc1 [compound 42, 4-(3-Benzyloxy-phenyl)-1H-pyrrolo[2,3-b]pyridine]
< 500 nM | < 500 nM | < 500 nM | CC(=O)Nc1ccc(-c2ccnc3[nH]ccc23)cc1 [compound 43, N-[4-(1H-Pyrrolo[2,3-b]pyridin-4-yl)-phenyl]-acetamide]
< 500 nM | < 500 nM | < 500 nM | CC(C)(C)OC(=O)N1CC=C(c2ccnc3[nH]ccc23)CC1 [compound 44]
500 to 5000 nM | < 500 nM | 500 to 5000 nM | C1=C(c2ccnc3[nH]ccc23)CCNC1 [compound 45]
500 to 5000 nM | 500 to 5000 nM | 500 to 5000 nM | CCOC(=O)c1cccc(-c2ccnc3[nH]ccc23)c1 [compound 46, 3-(1H-Pyrrolo[2,3-b]pyridin-4-yl)-benzoic acid ethyl ester]
500 to 5000 nM | 500 to 5000 nM | 500 to 5000 nM | O=C(O)c1cccc(-c2ccnc3[nH]ccc23)c1 [compound 47, 3-(1H-Pyrrolo[2,3-b]pyridin-4-yl)-benzoic acid]
< 500 nM | 500 to 5000 nM | < 500 nM | Fc1cccc(-c2c(Cl)cnc3[nH]ccc23)n1 [compound 48, 5-chloro-4-(6-fluoropyridin-2-yl)-1H-pyrrolo[2,3-b]pyridine]
< 500 nM | < 500 nM | 500 to 5000 nM | OCc1cccc(-c2ccnc3[nH]ccc23)c1 [compound 49, [3-(1H-Pyrrolo[2,3-b]pyridin-4-yl)-phenyl]-methanol]
500 to 5000 nM | 500 to 5000 nM | 500 to 5000 nM | Fc1cccc(-c2ccnc3[nH]ccc23)n1 [compound 50, 4-(6-fluoropyridin-2-yl)-1H-pyrrolo[2,3-b]pyridine]
500 to 5000 nM | 500 to 5000 nM | 500 to 5000 nM | OC1CCN(c2cccc(-c3ccnc4[nH]ccc34)n2)C1 (stereo not drawn) [compound 51]
< 500 nM | < 500 nM | < 500 nM | CCN(CC)c1cccc(-c2ccnc3[nH]ccc23)n1 [compound 52, N,N-Diethyl-6-(1H-pyrrolo[2,3-b]pyridin-4-yl)pyridin-2-amine]
500 to 5000 nM | < 500 nM | 500 to 5000 nM | CN(CCC(O)c1ccccc1)c1cccc(-c2ccnc3[nH]ccc23)n1 (stereo not drawn) [compound 53]
> 5000 nM | 500 to 5000 nM | > 5000 nM | c1cc(-c2ccnc3[nH]ccc23)nc(N2CCC[C@H]2CN2CCCC2)c1 [compound 54]
500 to 5000 nM | < 500 nM | < 500 nM | CN(CC(O)c1ccccc1)c1cccc(-c2ccnc3[nH]ccc23)n1 (stereo not drawn) [compound 55, 2-(N-(6-(1H-pyrrolo[2,3-b]pyridin-4-yl)pyridin-2-yl)-N-methylamino)1-phenylethanol]
500 to 5000 nM | 500 to 5000 nM | < 500 nM | CN(Cc1cccnc1)c1cccc(-c2ccnc3[nH]ccc23)n1 [compound 56, N-Methyl-N-((pyridin-3-yl)methyl)-6-(1H-pyrrolo[2,3-b]pyridin-4-yl)pyridin-2-amine]
> 5000 nM | 500 to 5000 nM | 500 to 5000 nM | CC(C)(CO)CNc1cccc(-c2ccnc3[nH]ccc23)n1 [compound 57, 3-(6-(1H-Pyrrolo[2,3-b]pyridin-4-yl)pyridin-2-ylamino)-2,2-dimethylpropan-1-ol]
500 to 5000 nM | 500 to 5000 nM | 500 to 5000 nM | c1cc(NCC2COc3ccccc3O2)nc(-c2ccnc3[nH]ccc23)c1 (stereo not drawn) [compound 58, N-((2,3-Dihydrobenzo[b][1,4]dioxin-2-yl)methyl)-6-(1H-pyrrolo[2,3-b]pyridin-4-yl)pyridin-2-amine]
> 5000 nM | 500 to 5000 nM | > 5000 nM | CC(C)C[C@@H](CO)Nc1cccc(-c2ccnc3[nH]ccc23)n1 [compound 59, (S)-2-(6-(1H-Pyrrolo[2,3-b]pyridin-4-yl)pyridin-2-ylamino)-4-methylpentan-1-ol]
500 to 5000 nM | 500 to 5000 nM | 500 to 5000 nM | c1cc(NCc2ccc3c(c2)OCO3)nc(-c2ccnc3[nH]ccc23)c1 [compound 60, N-((Benzo[d][1,3]dioxol-6-yl)methyl)-6-(1H-pyrrolo[2,3-b]pyridin-4-yl)pyridin-2-amine]
500 to 5000 nM | 500 to 5000 nM | < 500 nM | CC(C)N(C)c1cccc(-c2ccnc3[nH]ccc23)n1 [compound 61, N-Isopropyl-N-methyl-6-(1H-pyrrolo[2,3-b]pyridin-4-yl)pyridin-2-amine]
< 500 nM | < 500 nM | < 500 nM | COCc1cccc(-c2ccnc3[nH]ccc23)c1 [compound 62, 4-(3-Methoxymethyl-phenyl)-1H-pyrrolo[2,3-b]pyridine]
< 500 nM | < 500 nM | < 500 nM | N#CCc1cccc(-c2ccnc3[nH]ccc23)c1 [compound 63, [3-(1H-Pyrrolo[2,3-b]pyridin-4-yl)-phenyl]-acetonitrile]
500 to 5000 nM | 500 to 5000 nM | 500 to 5000 nM | CC(=O)N1CC=C(c2ccnc3[nH]ccc23)CC1 [compound 64]
